Measured values taken from BindingDB's records for doi:10.1021/jm050686b (Rheinische Friedrich-Wilhelms-Universitat Bonn, 2005).

Biological target: Papain (Carica papaya) (UniProt P00784)
Experiment: Enzyme activities were calculated from kinetic measurements performed by spectrophotometric detection of the product p-nitroaniline (pNA) at wavelength of 405 nm. Progress curves were monitored over 10 min. Rate was determined for 7 different inhibitor concentrations in duplicate. The apparent inhibition constant, Ki (app) was determined by fitting

Sequence of Papain (Carica papaya) (P00784 whole entry, looked up): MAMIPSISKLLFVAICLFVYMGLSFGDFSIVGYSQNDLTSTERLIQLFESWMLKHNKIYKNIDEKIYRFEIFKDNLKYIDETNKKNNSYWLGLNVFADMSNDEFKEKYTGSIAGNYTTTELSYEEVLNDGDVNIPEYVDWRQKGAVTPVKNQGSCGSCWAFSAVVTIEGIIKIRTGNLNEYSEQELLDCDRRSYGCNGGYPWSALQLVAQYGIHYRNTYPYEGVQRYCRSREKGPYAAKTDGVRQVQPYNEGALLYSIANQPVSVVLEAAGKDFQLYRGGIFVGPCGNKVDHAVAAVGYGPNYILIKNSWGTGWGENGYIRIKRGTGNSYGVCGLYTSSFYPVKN

Ki: 45 µM
SMILES: CC(C)(C)OC(=O)N[C@@H](Cc1ccsc1)C(=O)NCC#N [tert-butyl N-[(1S)-1-[(cyanomethyl)carbamoyl]-2-(thiophen-3-yl)ethyl]carbamate]
